1 compound from patent US6337411B2, “Stromelysin inhibitors” (Aventis Pharma Deutschland GmbH, priority 1999, dated 2002) can be followed below.

Data set [1] concerns the target T1, catalytic domain of human stromelysin (MMP-3) (Homo sapiens, UniProt P08254).
T1 construct: enzymatic activity of the catalytic domain of human stromelysin; made in house
The data set is described as follows: Enzymatic activity of the catalytic domain of human stromelysin (fluorogenic substrate). Particulars: inhibitor concentration giving 50% inhibition of the enzyme; pH 6.5 buffer; 15 minutes preincubation; fluorescence 328 nm (ex)/393 nm (em). Format: biochemical. How it is done:
Preparation and determination of the enzymatic activity of the catalytic domain of human stromelysin
The enzyme stromelysin (MMP-3) was prepared according to Ye et al. (Biochemistry; 31 (1992) pages 11231-11235). For the measurement of the enzyme activity or of the enzyme inhibitor action, 70 μl of buffer solution and 10 μl of enzyme solution were incubated for 15 minutes with 10 μl of a 10% strength (v/v) aqueous dimethyl sulfoxide solution, which optionally contained the enzyme inhibitor. After addition of 10 μl of a 10% strength (v/v) aqueous dimethyl sulfoxide solution which contained I mmol/l of the substrate, the enzyme reaction was monitored by fluorescence spectroscopy (328 nm (ex)/393 nm (em)). The enzyme activity is shown as the extinction increase/minute. The IC50 value was determined as that inhibitor concentration which in each case led to a 50% inhibition of the enzyme.
The buffer solution contained 0.05% Brij (Sigma, Deisenhofen, Germany) and 0.1 mol/l of tris/HCl, 0.1 mol/l of NaCl, 0.01 mol/l of CaCl2 and 0.1 mol/l of piperazine-N,N′-bis[2-ethanesulfonic acid] (pH=6.5).
The enzyme solution contained 5 μg/ml of an enzyme domain prepared according to Ye et al. The substrate solution contained 1 mmol/l of the fluorogenic substrate (7-methoxycoumarin-4-yl)acetyl-Pro-Leu-Gly-Leu-3-(2′,4′-dinitrophenyl)-L-2,3-diaminopropionyl-Ala-Arg-NH2 (Bachem, Heidelberg, Germany).

The nature of data set [2]: Solubility of isolated stromemycin (properties). Format: physicochemical. Particulars: solvents methanol, DMSO. The text has this: (§1) The stromemycin obtained has the following properties: […]
The nature of data set [3]: Stability of isolated stromemycin in solution (properties). The format is physicochemical. To be noted: neutral medium vs strongly acidic and alkaline solution.
Description: as §1

As a reminder, the IC50 is the concentration at which inhibition is half-maximal. Low readings indicate higher potency, high ones lower potency.

T1 sequence (P08254 100-272 limits assumed): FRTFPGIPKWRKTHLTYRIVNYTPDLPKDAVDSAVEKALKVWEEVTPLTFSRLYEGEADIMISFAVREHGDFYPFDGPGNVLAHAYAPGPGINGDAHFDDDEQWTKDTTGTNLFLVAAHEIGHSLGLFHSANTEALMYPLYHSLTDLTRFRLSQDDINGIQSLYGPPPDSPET

In the case of `CCCC=CC=CCCc1cc(OC(=O)c2c(CCC=CC=CCCC)cc(O)c(C3OC(CO)C(O)C(O)C3O)c2O)cc(O)c1C(=O)O` (stereo not drawn) [stromemycin], in data set [1], the IC50 turned out to be 115 µM. Besides, the Solubility entry in data set [2] is on record as “soluble in methanol, dimethyl sulfoxide (DMSO)”. The Stability result in data set [3] is “stable in neutral medium, but unstable in strongly acidic and alkaline solution”.
